How the values were obtained:
[1] = test system: human Periferal blood mononuclear cells (PBMCs); assay: Ex vivo stimulation of IL-6 production (ELISA); assay type: cell-based; conditions: 24 h; for ability to elicit IL-6 production (in words): 10 µM; for c (IL-6 production): 10 µM of each compound (MPLA 10 μM, LPS-RS 100 ng/mL), ELISA, dash = no IL-6 production found
From the text: Important factor in adjuvants development is wheter the compounds are capable to elicit immune response not only on reporter cells but on real immunocompetent cels. We have chosen ex vivo study on human Periferal blood mononuclear cells (PBMCs) to evaluate the ability to produce an interleukin 6 (IL-6). […] We have collected the blood samples from healthy donors. From those blood samples we had harvested PBMCs by standard protocol using Histopaque 1077 density gradient. PBMC specimens were frozen and kept in liquid nitrogen. The cells were incubated for 24 h with 10 µM (10% of lowest cytotoxic IC50—see the Section 2.5 and Section 2.6) of each compound and the ability to elicit IL-6 production was assessed. Synthetic MPLA (MPLAs) in equimolar concentration (10 μM) was used as a positive control and LPS from Rhodobacter sphaeroides 100 ng/mL (LPS-RS) as a negative control. IL-6 production was quantified by ELISA commercial kit (Sigma Aldrich) and results were interpreted by GraphPad Prism using Nonlinear Fit of RIA data function. […] Effect on other pro-inflamatory cytokines (e.g., IL-1) was not determined in this study and will be subject of ongoing study in order to explain discrepancy among in silico, in vitro and ex vivo findings. Furthermore study evaluating the influence of compounds on Th1/Th2/Th17 bias will be needed to thoroughly assess their adjuvant and immunomodulating potential. Nevertheless, despite such necesarry and laborious tasks novel TLR4 agonists and potential vaccine adjuvants have been found.
PBMCs was obtained by standard protocol using Histopaque 1077 gradient from whole blood of healthy donors. Cells were seeded at 25,000 cells per well and incubated for 24 h with final concentration 10 µM of each compound in triplicate (n = 3). After 24 h 100 µL of supernatant was collected from each well and level of IL-6 was determined by human IL-6 ELISA kit obtained from Sigma Aldrich (Darmstadt, Germany). Absorbance was measured at 450 nm wavelength on Synergy HT (BioTek). Level of IL-6 was calculated from standard curve using RIA nonlinear plot in Graph Pad Prism 6.

[2] = test system: CHO-K1 (Chinese hamster ovary); assay: MTT cytotoxicity assay; assay type: cell-based; conditions: Cricetulus griseus, CHO-K1 cells, 24 h exposure, mean of 2–3 independent measurements, read-out: IC50 and SEM
Protocol: The toxicity was estimated on the cell cultures in order to exclude the most toxic motifs from further development and to test whether the compounds might be used in the functional cell-model of TLR4. Standard MTT assay (Sigma Aldrich, Damrstadt, Germany) was applied according to the manufacturer’s protocol on the CHO-K1 (Chinese hamster ovary, ECACC, Salisbury, UK).
The IC50 values were calculated from the control-subtracted triplicates using non-linear regression (four parameters) of GraphPad Prism 5 software (GraphPad Software, La Jolla, CA, USA). Final IC50 and SEM value was obtained as a mean of 2–3 independent measurements (see Table 3).
Standard MTT assay (Sigma Aldrich, Darmstadt, Germany) was applied according to the manufacturer’s protocol on the CHO-K1 (Chinese hamster ovary, ECACC, Salisbury, UK) in order to compare the effect of different compound within the series. The cells were cultured according to ECACC recommended conditions and seeded in a density of 8000 per well. […] Cells were exposed to the tested compounds for 24 h. Then the medium was replaced by a medium containing 10 μM of MTT and cells were allowed to produce formazan for another approximately 3 h under surveillance. Thereafter, medium with MTT was sucked out and crystals of formazan were dissolved in DMSO (100 µL). Cell viability was assessed spectrophotometrically by the amount of formazan produced. Absorbance was measured at 570 nm with 650 nm reference wavelength on Synergy HT (BioTek, Winooski, VT, USA). IC50 was then calculated from the control—subtracted triplicates using non-linear regression (four parameters) of GraphPad Prism 5 software (GraphPad Software, La Jolla, CA, USA). Final IC50 and SEM value was obtained as a mean of 2–3 independent measurements.

hTLR4/MD2 receptor = biological target: T1, hTLR4/MD2 receptor (Homo sapiens, UniProt O00206+Q9Y6Y9); assay: In vitro hTLR4/MD2 activity assessment in HEK-Blue-hTLR4 reporter cells (SEAP); assay type: cell-based; conditions: 10 µM, 16 h, relative to MPLA at same concentration, n = 3
T1 construct: host or cells: HEK-Blue-hTLR4 cells
T1 sequence (O00206 24-839): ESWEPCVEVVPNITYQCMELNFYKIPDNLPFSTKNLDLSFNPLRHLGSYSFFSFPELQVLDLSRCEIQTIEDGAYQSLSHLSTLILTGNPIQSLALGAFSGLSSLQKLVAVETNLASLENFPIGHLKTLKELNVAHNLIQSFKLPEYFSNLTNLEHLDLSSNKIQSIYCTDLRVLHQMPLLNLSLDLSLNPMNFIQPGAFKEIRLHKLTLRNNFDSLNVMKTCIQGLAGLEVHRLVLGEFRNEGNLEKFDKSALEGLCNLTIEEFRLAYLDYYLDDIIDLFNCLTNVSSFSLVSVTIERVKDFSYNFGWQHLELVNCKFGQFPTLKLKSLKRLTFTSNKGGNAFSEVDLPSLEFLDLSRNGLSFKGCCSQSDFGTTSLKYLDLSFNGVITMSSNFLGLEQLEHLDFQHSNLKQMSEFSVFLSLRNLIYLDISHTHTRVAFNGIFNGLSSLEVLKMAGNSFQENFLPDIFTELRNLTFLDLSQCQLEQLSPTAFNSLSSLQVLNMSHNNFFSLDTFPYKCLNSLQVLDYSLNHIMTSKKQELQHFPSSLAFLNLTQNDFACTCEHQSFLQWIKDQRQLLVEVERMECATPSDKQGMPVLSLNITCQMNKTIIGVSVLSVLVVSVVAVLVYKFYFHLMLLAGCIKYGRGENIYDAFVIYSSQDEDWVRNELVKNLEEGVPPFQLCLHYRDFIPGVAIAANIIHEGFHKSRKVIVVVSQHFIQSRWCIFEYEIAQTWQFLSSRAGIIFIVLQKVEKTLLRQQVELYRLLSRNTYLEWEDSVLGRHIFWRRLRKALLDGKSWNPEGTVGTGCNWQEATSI
T1 sequence (Q9Y6Y9 17-160 limits assumed): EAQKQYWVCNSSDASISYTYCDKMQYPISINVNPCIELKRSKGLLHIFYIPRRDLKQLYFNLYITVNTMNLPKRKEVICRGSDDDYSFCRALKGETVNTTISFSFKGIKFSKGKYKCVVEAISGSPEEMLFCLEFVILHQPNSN
Protocol: Aliquots of 20 µL of each compound was added into the well containing 25000 HEK-Blue™-hTLR4 cells (Invivogen, Toulouse, France) and the final concentration of compound in each well was 10 µM. Each concentration was evaluated in triplicate. Synthetic MPLAs (Invivogen) of the same concentration was used as positive control, apyrogenous saline F1 (BBraun, Prague, Czech Republic) was used as negative control. Plates were incubated overnight for 16 h at 37 °C 5% CO2. After the incubation 20 μL aliquots of supernatant were collected and mixed with 200 μL of SEAP detection media (QuantiBlue™, Invivogen) and incubated for 2 h at 37 °C 5% CO2. Absorbance of the solution was measured at 630 nm and activity of each compound expressed as a percentage of an activity of the MPLA of respective concentration was determined (n = 3).

[3] = biological target: T2, Recombinant hTRL4/MD2 complex (Homo sapiens, UniProt O00206+Q9Y6Y9); assay: Surface plasmon resonance direct binding (Biacore T200)
T2 construct: purchased R&D Systems
T2 sequence (O00206 24-631 limits assumed): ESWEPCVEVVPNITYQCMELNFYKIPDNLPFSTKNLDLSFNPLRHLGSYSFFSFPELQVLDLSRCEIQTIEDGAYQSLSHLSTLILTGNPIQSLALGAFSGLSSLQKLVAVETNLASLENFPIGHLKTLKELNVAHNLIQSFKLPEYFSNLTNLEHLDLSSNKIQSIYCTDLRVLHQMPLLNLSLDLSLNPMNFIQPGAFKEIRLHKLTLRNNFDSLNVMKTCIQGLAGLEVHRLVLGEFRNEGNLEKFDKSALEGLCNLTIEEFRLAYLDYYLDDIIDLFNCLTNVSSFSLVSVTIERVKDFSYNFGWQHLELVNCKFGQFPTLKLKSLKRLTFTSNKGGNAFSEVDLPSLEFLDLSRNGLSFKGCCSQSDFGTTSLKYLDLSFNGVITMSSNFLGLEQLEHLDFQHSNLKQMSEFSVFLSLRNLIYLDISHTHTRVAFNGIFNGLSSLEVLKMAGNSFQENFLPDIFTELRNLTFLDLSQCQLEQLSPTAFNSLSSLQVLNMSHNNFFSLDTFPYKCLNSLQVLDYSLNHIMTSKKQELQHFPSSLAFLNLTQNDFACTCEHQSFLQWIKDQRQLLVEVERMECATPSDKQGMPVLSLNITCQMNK
T2 sequence (Q9Y6Y9 17-160 limits assumed): as the sequence (Q9Y6Y9 17-160 limits assumed) above
Protocol: To shed light on the prediction capabilities of vHTPS, direct binding of the best compound from the in vitro study (17) to the hTRL4/MD2 complex was investigated through Biospecific Interaction Analysis using the SPR-based biosensor Biacore T200 (GE Healthcare, Little Chalfont, UK).
Compound 17 was further analyzed using a series of concentrations from 6.25 up to 200 μM (binary dilution).
Surface plasmon resonance (SPR) experiments methodology was adapted from experiments by Svajger et al.. The experiments were performed using a Biacore T200 (GE Healthcare, Little Chalfont, UK) instrument equipped with a Series S—CM5 sensor chip (GE Healthcare). Dulbecco’s PBS supplied with 0.05% tween 20 and DMSO was used for immobilization of the protein. Recombinant human hTLR4/MD2 (R&D Systems, Minneapolis, MN, USA) was attached to the surface of the chip by amine coupling. The surface of flow cells 1 and 2 was initially activated with a 10-min pulse of a 1:1 mixture of 0.4 M 1-ethyl-3-(3-dimethylaminopropyl)-carbodiimide hydrochloride and 0.1 M N-hydroxysuccinimide, according to manufacturer recommendations. TLR4 was diluted into 10 mM sodium acetate buffer, pH 5.5, to a final concentration of 200 μg/mL, and injected twice for 600 s over the second flow cell. Both flow cells were blocked with a 10-min pulse of 1.0 M ethanolamine pH 8.5. The final capacity level was about 8000 RU. Analysis was performad in the running buffer consisting of Dulbecco’s PBS (10 mM Na2HPO4, 2 mM KH2PO4, 137 mM NaCl, 2 mM KCl, pH 7.4) supplemented with 1% DMSO (Sigma Aldrich, Darmstadt, Germany) and […]. All of the three hits from the cell-based assays were tested at two different concentrations: 20 μM and 200 μM. Each compound was injected for 1 min at a flow-rate of 30 μL/min, and the dissociation was monitored for 30 s. Regeneration was not needed, although 30 s of buffer-flow was used to stabilize the surface after each injection. […] We used the following concentrations for titration: 0, 6.25, 12.5, 25, 50, 100 and 200 μM.

[4] = Stability of the solid compounds (observation); assay type: physicochemical; conditions: solid state

Row | Compound | melting point [°C] | IC50 [2] [µM] | further results
1 | O=C(NCCc1c[nH]c2ccccc12)c1ccc(Cl)cc1 [Compound 17, N-(2-(1H-Indol-3-yl)ethyl)-4-chlorobenzamide] | – | 201 ± 8 | ability to elicit IL-6 production (in words) [1]: did not shown any effect; activity of MPLA (hTLR4/MD2 agonist activity normalized to MPLA) (hTLR4/MD2 receptor): more than 20%; dissociation (SPR, in words) ([3]; 6.25 up to 200 μM): rapid dissociation rates; Kd ([3]; SPR, immobilized hTRL4/MD2, 6.25 up to 200 μM): 0.747 µM; direct binding to the hTRL4/MD2 complex (SPR, in words) ([3]; immobilized recombinant hTRL4/MD2): direct binding to the hTRL4/MD2 complex was confirmed
2 | Monophosphoryl lipid A [MPLA, reference compound] | – | – | c (IL-6 production) [1]: 3078.97 pg/mL
3 | O=C(NCCc1c[nH]c2ccccc12)c1ccccc1 [Compound 14, N-(2-(1H-Indol-3-yl)ethyl)benzamide] | – | 297 ± 17 | ability to elicit IL-6 production (in words) [1]: significantly induce production of IL-6; c (IL-6 production) [1]: 53.501 pg/mL
4 | O=C(NCCc1c[nH]c2ccccc12)c1ccc2c(c1)CCCC2 [Compound 23, N-(2-(1H-Indol-3-yl)ethyl)-5,6,7,8-tetrahydronaphthalene-2-carboxamide] | 137 to 139 | 98 ± 6 | –
5 | O=C(NCCc1c[nH]c2ccccc12)C1CCCCCC1 [Compound 24, N-(2-(1H-Indol-3-yl)ethyl)cycloheptanecarboxamide] | 88.4 to 90.4 | 170 ± 10 | stability of the compound (in words) [4]: unwanted degradations from crystals to amorphous state
6 | CC(C)CCC(=O)NCCc1c[nH]c2ccccc12 [Compound 25, N-(2-(1H-Indol-3-yl)ethyl)-4-methylpentanamide] | 45.1 to 47.1 | 348 ± 35 | stability of the compound (in words) [4]: unwanted degradations from crystals to amorphous state
7 | O=C(NCCc1c[nH]c2ccccc12)C1CCCCC1 [Compound 20, N-(2-(1H-Indol-3-yl)ethyl)cyclohexanecarboxamide] | 104.8 to 106.3 | 211 ± 43 | –
8 | Cc1ccc(C(=O)NCCc2c[nH]c3ccccc23)cc1 [Compound 15, N-(2-(1H-Indol-3-yl)ethyl)-4-methylbenzamide] | – | 197 ± 41 | –

Continued, in another order:

Row | melting point [°C] | Compound | IC50 [2] [µM] | further results
9 | 132.8 to 134.3 | COc1ccc(C(=O)NCCc2c[nH]c3ccccc23)cc1 [Compound 16, N-(2-(1H-Indol-3-yl)ethyl)-4-methoxybenzamide] | 200 ± 7 | –
10 | 112.4 to 113.9 | O=C(NCCc1c[nH]c2ccccc12)c1ccc(Cl)c(Cl)c1 [Compound 18, N-(2-(1H-Indol-3-yl)ethyl)-3,4-dichlorobenzamide] | 892 ± 122 | –
11 | 193.2 to 195 | O=C(NCCc1c[nH]c2ccccc12)c1ccc2ccccc2c1 [Compound 19, N-(2-(1H-Indol-3-yl)ethyl)-2-naphthamide] | 155 ± 12 | –
12 | 164.5 to 166.5 | O=C(NCCc1c[nH]c2ccccc12)c1cccc2ccccc12 [Compound 21, N-(2-(1H-Indol-3-yl)ethyl)-1-naphthamide] | – | –
13 | 123.2 to 125.2 | O=C(NCCc1c[nH]c2ccccc12)C1CCc2ccccc2C1 (stereo not drawn) [Compound 22, N-(2-(1H-Indol-3-yl)ethyl)-1,2,3,4-tetrahydronaphthalene-2-carboxamide] | 128 ± 8 | ability to elicit IL-6 production (in words) [1]: significantly induce production of IL-6; c (IL-6 production) [1]: 147.64 pg/mL; activity of MPLA (hTLR4/MD2 agonist activity normalized to MPLA) (hTLR4/MD2 receptor): ~10%

From PMC6017214, “Rational Design of a New Class of Toll-Like Receptor 4 (TLR4) Tryptamine Related Agonists by Means of the Structure- and Ligand-Based Virtual Screening for Vaccine Adjuvant Discovery” (Molecules : A Journal of Synthetic Chemistry and Natural …, 2018)
